Assay results taken from US10851386B2, “Plants transformed to express a phosphite dehydrogenase enzyme capable of metabolizing phosphite to reduce competition from weeds” (Centro de Investigación y de Estudios Avanzados del …, priority 2008, dated 2020).

Tests used:
[1] = tested on: parental (WT) line Col-0; test: Growth on liquid growth medium with phosphite or phosphate as phosphorus source; format: in vivo, Arabidopsis thaliana
Method: (§1) The parental line and the PTXD-3 and PTXD-5 transgenic lines were tested for the ability to grow on a liquid medium, with or without inorganic phosphate (Pi) as the source of phosphorus. Seeds from the parental and transgenic lines were germinated in liquid media and tested for growth.
(§2) In FIG. 7, the absence or presence of sustained plant growth (beyond the germination stage) is identified with a minus (−) or a plus (+) symbol, respectively. […] Therefore, the transgenic lines acquired the ability to metabolize phosphite as a phosphorus source to support plant growth.

[2] = tested on: transgenic PTXD-3 and PTXD-5 lines; test: as above; format: in vivo, Arabidopsis thaliana
Method: Two transgenic Arabidopsis lines, dubbed PTXD-3 and PTXD-5, were prepared and isolated as described in Example 1. Each line is homozygous for the ptxD expression construct of Example 1.
as §1, §2

[3] = tested on: transgenic tobacco homozygous for the 35S::PtxD gene; test: Tobacco seedling growth in MS media with phosphate or phosphite as only phosphorus source; format: in vivo, Nicotiana tabacum; conditions: for seedling growth: MS media, 25 days after germination, FIG. 13
Method: (§3) Nicotiana tabacum was transformed with the expression construct described in Example 1. In particular, tobacco leaf explants were co-cultivated with an Agrobacterium strain harboring a 35S::PtxD construct (Example 1) within its T-DNA. Leaf discs were allowed to regenerate in MS media containing 1 mM phosphite as the only phosphorus source. Plants regenerated from these leaf discs on phosphite-containing media were transferred to soil and allowed to set seed under greenhouse conditions.
(§4) The presence or absence of growth (after depletion of seed-furnished phosphorus) is indicated by a plus (+) or a minus (−) symbol, respectively.
(§5) Seedlings were germinated and maintained in MS media supplemented with 1 mM phosphite as the only phosphorus source for 25 days. The seedlings then were transferred to tissue culture flasks containing MS with 1 mM phosphite as the only phosphorus source and were allowed to grow for 25 additional days in a plant growth chamber at 23° C., with a photoperiod of 18 h light, followed by 6 h darkness for each 24-hour period.

[4] = tested on: Control plants (wild-type Col-0); test: Growth in media containing only phosphite as external source of phosphorus; format: in vivo, Arabidopsis thaliana; conditions: only phosphite (about 0.1 to 5 mM) as external source of phosphorus
Method: (§6) The transformed Agrobacterium clone was used to transform Arabidopsis thaliana (ecotype Col-0) (generally described herein as “wild-type” (WT)) using a modified floral dip method. Transformed T0 progeny were selected using phosphinothricin resistance. In particular, screening was performed with MS 0.1× media containing phosphinothricin (20 mg/L). Twenty-eight resistant lines were identified through PCR amplification of the ptxD gene.
(§7) The ptxD transgenic plants were tested for their ability to grow in media containing only phosphite (e.g., about 0.1 to 5 mM) as an external source of phosphorus.

[5] = tested on: ptxD transgenic plants; test: Growth or selection in media containing only phosphite as external source of phosphorus; format: in vivo, Arabidopsis thaliana
Method: as §6, §7
The ptxD expression construct also was used to provide a selectable marker for selection of transgenic plants with modified phosphorus metabolism. Wild-type Col-0 plants were transformed using Agrobacterium containing the ptxD expression construct. T0 progeny (seeds) were plated on a medium with phosphite (5 mM) as the source of phosphorus.

[6] = tested on: transgenic plants (PTXD-3 and PTXD-5); test: Reduction of total phosphorus in growth medium containing phosphite (vanadium-molybdate method); format: in vivo, Arabidopsis thaliana; conditions: initially 50, 100 or 1000 μM phosphite; 45 days; 100 plants per container; FIG. 8
Source text: Wild type and the two transgenic Arabidopsis lines, PTXD-3 and PTXD-5, were germinated and cultivated in one-liter plastic containers with 0.1× Murashige and Skoog liquid medium lacking phosphate and supplemented with either 50, 100 or 1000 micromolar phosphorous acid (H3PO3). One hundred plants per plastic container were allowed to grow for 45 days in the plastic container in a growth chamber with a 16:8 light:dark cycle for each 24-hour period. The plants were covered to avoid moisture loss. A double layer of plastic mesh was placed where seeds were sown to germinate on top of liquid media in each plastic container.
After 45 days of growth the total phosphorus content was determined in the liquid media, after removing the plants, using a vanadium-molybdate method. Briefly, 5 mL of liquid media from each sample was digested with nitric acid:perchloric acid (HNO3:HClO4; 5:1). Then, the phosphorus content was determined with a colorimetric method based on the addition of a solution of ammonium molybdate (20 mM) and ammonium metavanadate (10 mM) in 70% perchloric acid. After a 20-minute incubation at room temperature, the absorbance at 400 nm was measured with a spectrophotometer.
In FIG. 8, the first three bars labeled as “initial” represent the initial concentration of total phosphorus in the media without plants. […]

[7] = tested on: parental (WT) plants; test: Growth and dry weight on sand:vermiculite substrate with phosphate or phosphite; format: in vivo, Arabidopsis thaliana; conditions: sand:vermiculite (1:1)
Method: (§8) FIGS. 10 and 11 show photographs of parental and ptxD transgenic plants distributed according to FIG. 9 and tested for growth on a substrate containing added phosphate (Pi) (FIG. 10) or phosphite (Phi) (FIG. 11) as the source of phosphorus. […] The plants here and in FIG. 11 were grown in a sand:vermiculite mixture (1:1) and received water and nutrient solutions (lacking any other phosphorus source except as previously indicated) periodically.
(§9) The dry weight of three plants cultivated in sand:vermiculite (1:1) as substrate is plotted in the figure with respect to each particular plant line and source(s) of phosphorus.

[8] = tested on: ptxD transgenic (PTXD) plants; test: as above; format: in vivo, Arabidopsis thaliana; conditions: sand:vermiculite (1:1)
Method: as §8, §9

[9] = tested on: control tobacco seedlings; test: Tobacco seedling growth in MS media with phosphate or phosphite as only phosphorus source; format: in vivo, Nicotiana tabacum
Method: as §3, §4, §5

[10] = 50 μM inorganic phosphate, FIG. 7
[11] = 50, 100, and 1000 μM inorganic phosphite as phosphorus source, FIG. 7
[12] = MS with 1 mM phosphite as only phosphorus source, 25 days plus 25 additional days, FIG. 14

O=P(O)(O)O [phosphate, phosphoric acid (H3PO4)]
growth [1, 10]: grew efficiently | growth ([1]; 50, 100, and 1000 μM phosphate): grew efficiently | growth [2, 10]: grew efficiently | growth ([2]; 50, 100, and 1000 μM phosphate): grew efficiently | seedling growth ([3]; 1 mM Pi as only phosphorus source): sustained growth

OP(O)O [phosphite, phosphorous acid (H3PO3)]
growth [4]: no substantial growth | growth of T0 progeny relative to wild type plants ([5]; medium with phosphite (5 mM) as the source of phosphorus, FIG. 6): substantial growth advantage | growth ([5]; only phosphite (about 0.1 to 5 mM) as external source of phosphorus): grew efficiently | growth [1, 11]: but not the parental line | growth [2, 11]: grew efficiently | decrease of phosphorus content in the media (removal of phosphite) [6]: more than 50% | sustained growth on substrate ([7]; added phosphite (Phi), FIG. 11): only the transgenic plants were capable of sustained growth | growth (dry weight of three plants) ([7]; phosphite as the source of phosphorus, FIG. 12): did not grow substantially | growth (dry weight of three plants) on phosphite relative to phosphate ([8]; FIG. 12): grew similarly or better | sustained growth on substrate ([8]; added phosphite (Phi), FIG. 11): only the transgenic plants were capable of sustained growth | seedling growth ([9]; MS media, 1 mM Phi as only phosphorus source, 25 days after germination, FIG. 13): unable to sustain normal growth | growth and development [9, 12]: unable to use phosphite | seedling growth ([3]; 1 mM Phi as only phosphorus source): sustained growth | growth [3, 12]: able to sustain rapid growth
